The results in this text go back to US9757477B2, “Imaging brown adipose tissue with curcumin derivatives” (The General Hospital Corporation, priority 2013, dated 2017).

This test relates to interscapular BAT. As to the kind of experiment: PET imaging with 18F-labeled curcumin analogue. Conditions: 100-180 μCi tail vein. The class given is in vivo, mice. How it is done: PET imaging was conducted with a microPET P4 system (Concorde Microsystems Incorporated, Knoxville, Tenn., USA). The imaging parameters of this system are in-plane and axial resolution of 1.2 mm full width at half maximal count. Prior to PET imaging, mice were anesthetized with isoflurane/O2, and then fixed to the imaging table with a custom-fabricated mold. Injection catheter was placed in tail vein for administration of the radiotracer. Subsequently, CRANAD-5F^18 (100-180 μCi) was injected into the tail vein and volumetric dynamic data were acquired in list-mode format for 120 min. Imaging data were corrected for uniformity, attenuation, decay, and acquisition time. PET images were reconstructed using filtered back projection with a Ramp filter (cutoff value of 0.5). The software, ASIPro 6.0, was provided by the microPET manufacturer.

As to `CN(C)c1ccc(C=CC(O)=CC(=O)C=Cc2ccc(N(C)CC[18F])cc2)cc1` [CRANAD-5F], the “in vivo PET imaging of BAT” value was “clearly highlighted BAT at the interscapular site”.
